Experimental data published in patent publication EP0908457B1, “3-(1,2-benzisothiazol- and isoxazol-5-Y1)-2,4(1H,3H)-pyrimidinedione or thione and 3-(1,2-benzisothiazol- and isoxazol-5-y1)-4(3H)-pyrimidinone or thione herbicidal agents” (BASF AKTIENGESELLSCHAFT, priority 1997, dated 1999).

Legend:
[1] = test system: Echinochloa oryzoides (Ard.) Fritsch.; experiment: Preemergence weed control under flooded paddy conditions, ECHORC (Watergrass (Calif.)); type: in vivo; details: flooded paddy, rated three to four weeks after treatment; as to herbicidal effect rating, ECHORC: meaning of each grade not given here
[2] = test system: Cyperus iria; experiment: Preemergence weed control under flooded paddy conditions, CYPIR (Rice Flatsedge); type: in vivo; details: flooded paddy, rated three to four weeks after treatment; as to herbicidal effect rating, CYPIR: meaning of each grade not given here
[3] = test system: Cyperus serotinus, Rottb.; experiment: Preemergence weed control under flooded paddy conditions, CYPSE (Flatsedge); type: in vivo; details: rated three to four weeks after treatment; as to herbicidal effect rating, CYPSE: meaning of each grade not given here
[4] = test system: Monochoria vaginalis, Presl.; experiment: Preemergence weed control under flooded paddy conditions, MOOVA (Monochoria); type: in vivo; details: flooded paddy, rated three to four weeks after treatment; as to herbicidal effect rating, MOOVA: meaning of each grade not given here
[5] = test system: Sagittaria pygmaea, L.; experiment: Preemergence weed control under flooded paddy conditions, SAGPY (Arrowhead (Pygmaea)); type: in vivo; details: flooded paddy, rated three to four weeks after treatment; as to herbicidal effect rating, SAGPY: meaning of each grade not given here
[6] = test system: Oryza sativa, (L.) Tebonnet; experiment: Rice tolerance to post-transplant applications under flooded paddy conditions (Example 187), ORYSAT (Rice, Tebonnet); details: rated three to four weeks after treatment
[7] = Rate 0.0320 kg/ha, preemergence weeds
[8] = Rate 0.0620 kg/ha, preemergence weeds
[9] = Rate 0.1250 kg/ha, preemergence weeds
[10] = Rate 0.2500 kg/ha, preemergence weeds

SMILES: CC(C)c1nsc2ccc(-n3c(=O)cc(C(F)(F)F)n(C)c3=O)cc12 [Example 499, 2,4(1H,3H)-Pyrimidinedione, 3-(3-isopropyl-1,2-benzisothiazol-5-yl)-1-methyl-6-(trifluoromethyl)-]
- ECHORC herbicidal rating ([1]; 0.0320 kg/ha, preemergence): 7.5
- ECHORC herbicidal rating ([1]; 0.0620 kg/ha, preemergence): 9.0
- ECHORC herbicidal rating ([1]; 0.1250 kg/ha, preemergence): 9.0
- ECHORC herbicidal rating ([1]; 0.2500 kg/ha, preemergence): 9.0
- CYPIR herbicidal rating ([2]; 0.0320 kg/ha, preemergence): 8.0
- CYPIR herbicidal rating ([2]; 0.0620 kg/ha, preemergence): 9.0
- CYPIR herbicidal rating ([2]; 0.1250 kg/ha, preemergence): 9.0
- CYPIR herbicidal rating ([2]; 0.2500 kg/ha, preemergence): 9.0
- CYPSE herbicidal rating ([3]; 0.0320 kg/ha, preemergence): 9.0
- CYPSE herbicidal rating ([3]; 0.0620 kg/ha, preemergence): 9.0
- CYPSE herbicidal rating ([3]; 0.1250 kg/ha, preemergence): 9.0
- CYPSE herbicidal rating ([3]; 0.2500 kg/ha, preemergence): 9.0
- MOOVA herbicidal rating ([4]; 0.0320 kg/ha, preemergence): 8.0
- MOOVA herbicidal rating ([4]; 0.0620 kg/ha, preemergence): 9.0
- MOOVA herbicidal rating ([4]; 0.1250 kg/ha, preemergence): 9.0
- MOOVA herbicidal rating ([4]; 0.2500 kg/ha, preemergence): 9.0
- SAGPY herbicidal rating ([5]; 0.0320 kg/ha, preemergence): 8.0
- SAGPY herbicidal rating ([5]; 0.0620 kg/ha, preemergence): 9.0
- SAGPY herbicidal rating ([5]; 0.1250 kg/ha, preemergence): 9.0
- SAGPY herbicidal rating ([5]; 0.2500 kg/ha, preemergence): 9.0
- ORYSAT herbicidal rating (rice tolerance) ([6]; 0.0320 kg/ha): 6.5
- ORYSAT herbicidal rating (rice tolerance) ([6]; 0.0620 kg/ha): 8.0
- ORYSAT herbicidal rating (rice tolerance) ([6]; 0.1250 kg/ha): 7.5
- ORYSAT herbicidal rating (rice tolerance) ([6]; 0.2500 kg/ha): 9.0

SMILES: COC(=O)C(C)Oc1ccc(C(C)C)cc1-c1nsc2ccc(-n3c(=O)cc(C(F)(F)F)n(C)c3=O)cc12 (stereo not drawn) [Example 30, Methyl 2-{2-{5-[3,6-dihydro-3-methyl-4-(trifluoromethyl)-2,6-dioxo-1(2H)-pyrimidinyl]-1,2-benzisothiazol-3-yl}-4-isopropylphenoxy}propionate]
- herbicidal effect rating, ECHORC ([1]; 0.0313 kg/ha, preemergence): 6.5
- herbicidal effect rating, ECHORC ([1]; 0.0625 kg/ha, preemergence): 8.5
- herbicidal effect rating, ECHORC ([1]; 0.1250 kg/ha, preemergence): 9.0
- herbicidal effect rating, ECHORC ([1]; 0.2500 kg/ha, preemergence): 9.0
- herbicidal effect rating, CYPIR ([2]; 0.0313 kg/ha, preemergence): 2.0
- herbicidal effect rating, CYPIR ([2]; 0.0625 kg/ha, preemergence): 6.0
- herbicidal effect rating, CYPIR ([2]; 0.1250 kg/ha, preemergence): 8.0
- herbicidal effect rating, CYPIR ([2]; 0.2500 kg/ha, preemergence): 8.0
- herbicidal effect rating, CYPSE ([3]; 0.0313 kg/ha, preemergence): 0.0
- herbicidal effect rating, CYPSE ([3]; 0.0625 kg/ha, preemergence): 0.0
- herbicidal effect rating, CYPSE ([3]; 0.1250 kg/ha, preemergence): 4.0
- herbicidal effect rating, CYPSE ([3]; 0.2500 kg/ha, preemergence): 2.0
- herbicidal effect rating, MOOVA ([4]; 0.0313 kg/ha, preemergence): 9.0
- herbicidal effect rating, MOOVA ([4]; 0.0625 kg/ha, preemergence): 9.0
- herbicidal effect rating, MOOVA ([4]; 0.1250 kg/ha, preemergence): 9.0
- herbicidal effect rating, MOOVA ([4]; 0.2500 kg/ha, preemergence): 9.0
- herbicidal effect rating, SAGPY ([5]; 0.0313 kg/ha, preemergence): 0.0
- herbicidal effect rating, SAGPY ([5]; 0.0625 kg/ha, preemergence): 0.0
- herbicidal effect rating, SAGPY ([5]; 0.1250 kg/ha, preemergence): 2.0
- herbicidal effect rating, SAGPY ([5]; 0.2500 kg/ha, preemergence): 7.0
- herbicidal effect rating, ORYSAT (rice tolerance) ([6]; 0.0313 kg/ha): 2.0
- herbicidal effect rating, ORYSAT (rice tolerance) ([6]; 0.0625 kg/ha): 3.0
- herbicidal effect rating, ORYSAT (rice tolerance) ([6]; 0.1250 kg/ha): 3.0
- herbicidal effect rating, ORYSAT (rice tolerance) ([6]; 0.2500 kg/ha): 3.5

SMILES: C[C@H](Br)[C@H](Br)c1nsc2ccc(-n3c(=O)cc(C(F)(F)F)n(C)c3=O)cc12 [Example 302, 2,4(1H,3H)-Pyrimidinedione, 3-[3-(1,2-dibromopropyl)-1,2-benzisothiazol-5-yl]-1-methyl-6-(trifluoromethyl)-, (1R,2S)-]
- herbicidal effect rating, ECHORC [1, 7]: 4.0
- herbicidal effect rating, ECHORC [1, 8]: 5.0
- herbicidal effect rating, ECHORC [1, 9]: 8.0
- herbicidal effect rating, ECHORC [1, 10]: 8.5
- herbicidal effect rating, CYPIR [2, 7]: 8.0
- herbicidal effect rating, CYPIR [2, 8]: 8.0
- herbicidal effect rating, CYPIR [2, 9]: 8.5
- herbicidal effect rating, CYPIR [2, 10]: 8.5
- herbicidal effect rating, CYPSE [3, 7]: 4.5
- herbicidal effect rating, CYPSE [3, 8]: 4.5
- herbicidal effect rating, CYPSE [3, 9]: 4.5
- herbicidal effect rating, CYPSE [3, 10]: 6.0
- herbicidal effect rating, MOOVA [4, 7]: 7.0
- herbicidal effect rating, MOOVA [4, 8]: 7.0
- herbicidal effect rating, MOOVA [4, 9]: 9.0
- herbicidal effect rating, MOOVA [4, 10]: 9.0
- herbicidal effect rating, SAGPY [5, 7]: 0.0
- herbicidal effect rating, SAGPY [5, 8]: 0.0
- herbicidal effect rating, SAGPY [5, 9]: 9.0
- herbicidal effect rating, SAGPY [5, 10]: 9.0
- herbicidal effect rating ORYSAT ([6]; Rate 0.0320 kg/ha): 1.0
- herbicidal effect rating ORYSAT ([6]; Rate 0.0620 kg/ha): 4.5
- herbicidal effect rating ORYSAT ([6]; Rate 0.1250 kg/ha): 7.0
- herbicidal effect rating ORYSAT ([6]; Rate 0.2500 kg/ha): 8.0
